PubChem BioAssay AID248 (DTP/NCI, 2004)
Inconclusive results and toxic doses are left out. No stated cut-off is given here; in the data, active means T/C of 150% or more; inactive means T/C below 125%.

Test system: L1210 leukemia ip in BDF1 mice, survival T/C
Assay: NCI In Vivo Anticancer Drug Screen. Data for tumor model L1210 Leukemia (intraperitoneal) in B6D2F1 (BDF1) mice
Conditions: endpoint: mean survival time, higher = longer survival
Method in brief: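 Survival endpoint. Drug-treated group vs vehicle group, expressed as T divided by C. Tumor passaged by transplantation.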

[1] = dose: 100.0 mg/kg/injection, schedule: Q04DX003 (ip), vehicle: saline
[2] = dose: 200.0 mg/kg/injection, schedule: Q04DX003 (ip), vehicle: saline
[3] = dose: 400.0 mg/kg/injection, schedule: Q04DX003 (ip), vehicle: saline
[4] = dose: 100.0 mg/kg/injection, schedule: Q01DX009 (ip), vehicle: Klucel (hydroxypropylcellulose) (HPC)
[5] = dose: 200.0 mg/kg/injection, schedule: Q01DX009 (ip), vehicle: Klucel (hydroxypropylcellulose) (HPC)
[6] = dose: 25.0 mg/kg/injection, schedule: Q04DX002 (ip), vehicle: Klucel (hydroxypropylcellulose) (HPC)
[7] = dose: 50.0 mg/kg/injection, schedule: Q04DX002 (ip), vehicle: Klucel (hydroxypropylcellulose) (HPC)
[8] = dose: 100.0 mg/kg/injection, schedule: Q01DX001 (ip), vehicle: carboxymethylcellulose (CMC)
[9] = dose: 200.0 mg/kg/injection, schedule: Q01DX001 (ip), vehicle: carboxymethylcellulose (CMC)
[10] = dose: 400.0 mg/kg/injection, schedule: Q01DX001 (ip), vehicle: carboxymethylcellulose (CMC)
[11] = dose: 400.0 mg/kg/injection, schedule: Q01DX009 (ip), vehicle: Klucel (hydroxypropylcellulose) (HPC)

Measured: T/C

N#C/C(=N\Nc1ccc(S(=O)(=O)O)cc1)C(N)=O
inactive: [1] 104 % of control | [2] 100 % of control | [3] 98 % of control

CCCC(C)OP(=O)(OCC)OC(C)CC (stereo not drawn)
inactive: [4] 100 % of control | [5] 89 % of control

C1CCC2[N-]CC3CCCCC3[N-]CC3CCCCC3[N-]CC3CCCCC3[N-]CC2C1.[Cu+2].[O-][Cl+3]([O-])([O-])O (stereo not drawn)
inactive: dose: 12.5 mg/kg/injection, schedule: Q04DX002 (ip), vehicle: Klucel (hydroxypropylcellulose) (HPC) 111 % of control | [6] 108 % of control | [7] 108 % of control

O=[N+]([O-])c1ccc2nc(=S)[nH]n2c1
inactive: dose: 100.0 mg/kg/injection, schedule: Q01DX001 (ip), vehicle: acetone 97 % of control | dose: 200.0 mg/kg/injection, schedule: Q01DX001 (ip), vehicle: acetone 93 % of control | dose: 400.0 mg/kg/injection, schedule: Q01DX001 (ip), vehicle: acetone 98 % of control

C1CCN(CCCCN2CCCCC2)CC1
inactive: dose: 100.0 mg/kg/injection, schedule: Q01DX001 (ip), vehicle: saline 96 % of control | dose: 200.0 mg/kg/injection, schedule: Q01DX001 (ip), vehicle: saline 104 % of control | dose: 400.0 mg/kg/injection, schedule: Q01DX001 (ip), vehicle: saline 108 % of control

O=C1OC(c2ccc([N+](=O)[O-])cc2)=N/C1=C\c1cccc2ccccc12
inactive: dose: 100.0 mg/kg/injection, schedule: Q01DX009 (ip), vehicle: other 96 % of control | dose: 200.0 mg/kg/injection, schedule: Q01DX009 (ip), vehicle: other 88 % of control | dose: 400.0 mg/kg/injection, schedule: Q01DX009 (ip), vehicle: other 93 % of control

CC(=O)CC(C)=Nc1ccc([N+](=O)[O-])cc1
inactive: dose: 100.0 mg/kg/injection, schedule: Q04DX003 (ip), vehicle: saline with Tween-80 101 % of control | dose: 200.0 mg/kg/injection, schedule: Q04DX003 (ip), vehicle: saline with Tween-80 103 % of control | dose: 400.0 mg/kg/injection, schedule: Q04DX003 (ip), vehicle: saline with Tween-80 89 % of control

CC(=O)OCCC/C(=C\c1ccc(C)cc1)[N+](=O)[O-]
inactive: [8] 88 % of control | [9] 88 % of control | [10] 88 % of control

O=C(CC1=CCCCC1)c1ccccc1
inactive: [4] 103 % of control | [5] 100 % of control | [11] 97 % of control

CC(=O)C(CN(C)C)c1ccccc1 (stereo not drawn)
inactive: dose: 12.5 mg/kg/injection, schedule: Q01DX009 (ip), vehicle: saline with Tween-80 91 % of control | dose: 12.5 mg/kg/injection, schedule: Q04DX002 (ip), vehicle: saline with Tween-80 102 % of control | dose: 25.0 mg/kg/injection, schedule: Q01DX009 (ip), vehicle: saline with Tween-80 98 % of control | dose: 25.0 mg/kg/injection, schedule: Q04DX002 (ip), vehicle: saline with Tween-80 102 % of control | dose: 50.0 mg/kg/injection, schedule: Q01DX009 (ip), vehicle: saline with Tween-80 89 % of control | dose: 50.0 mg/kg/injection, schedule: Q01DX009 (ip), vehicle: saline 103 % of control | dose: 50.0 mg/kg/injection, schedule: Q04DX002 (ip), vehicle: saline with Tween-80 109 % of control | dose: 200.0 mg/kg/injection, schedule: Q01DX009 (ip), vehicle: saline 90 % of control

CCC[CH2][Sn](=[S])[CH2]CCC
inactive: dose: 0.69 mg/kg/injection, schedule: Q01DX009 (ip), vehicle: other 98 % of control | dose: 0.78 mg/kg/injection, schedule: Q01DX009 (ip), vehicle: saline 93 % of control | dose: 1.04 mg/kg/injection, schedule: Q01DX009 (ip), vehicle: other 95 % of control | dose: 1.56 mg/kg/injection, schedule: Q01DX009 (ip), vehicle: other 96 % of control | dose: 1.56 mg/kg/injection, schedule: Q01DX009 (ip), vehicle: saline 112 % of control | dose: 2.34 mg/kg/injection, schedule: Q01DX009 (ip), vehicle: other 107 % of control | dose: 3.12 mg/kg/injection, schedule: Q01DX009 (ip), vehicle: saline 114 % of control | dose: 3.13 mg/kg/injection, schedule: Q01DX009 (ip), vehicle: other 105 % of control | dose: 6.25 mg/kg/injection, schedule: Q01DX009 (ip), vehicle: saline 122 % of control | dose: 12.5 mg/kg/injection, schedule: Q01DX009 (ip), vehicle: other 88 % of control | dose: 12.5 mg/kg/injection, schedule: Q04DX003 (ip), vehicle: other 98 % of control | [8] 115 % of control | [9] 102 % of control | [10] 86 % of control

COc1cc2c(cc1OC)N(C(C)=O)Cc1ccc(C=O)n1C2
inactive: [6] 105 % of control | [7] 97 % of control | dose: 100.0 mg/kg/injection, schedule: Q04DX002 (ip), vehicle: Klucel (hydroxypropylcellulose) (HPC) 90 % of control

Cc1ncc(CCO)c2c1OC(C)(C)OC2
inactive: [8] 98 % of control | [9] 110 % of control | [10] 101 % of control

CCOC(=O)C(C)(C(=O)OCC)c1ccccc1
inactive: dose: 100.0 mg/kg/injection, schedule: Q01DX009 (ip), vehicle: saline with Tween-80 97 % of control | [1] 97 % of control | dose: 200.0 mg/kg/injection, schedule: Q01DX009 (ip), vehicle: saline with Tween-80 95 % of control | [2] 97 % of control | dose: 400.0 mg/kg/injection, schedule: Q01DX009 (ip), vehicle: saline with Tween-80 95 % of control | [3] 98 % of control

NC(=O)C1=CN(CCc2ccccc2)c2ccccc2C1S(=O)(=O)O (stereo not drawn)
inactive: dose: 75.0 mg/kg/injection, schedule: Q01DX001 (ip), vehicle: other 98 % of control | dose: 150.0 mg/kg/injection, schedule: Q01DX001 (ip), vehicle: other 94 % of control | dose: 300.0 mg/kg/injection, schedule: Q01DX001 (ip), vehicle: other 96 % of control

C=Cc1cc(C)cc(OC)c1O
inactive: dose: 50.0 mg/kg/injection, schedule: Q01DX009 (ip), vehicle: Klucel (hydroxypropylcellulose) (HPC) 87 % of control | [4] 89 % of control | [5] 87 % of control

O=C(Cc1ccccc1)OCC#CC#CCOC(=O)Cc1ccccc1
inactive: [4] 103 % of control | dose: 100.0 mg/kg/injection, schedule: Q04DX003 (ip), vehicle: Klucel (hydroxypropylcellulose) (HPC) 92 % of control | [5] 98 % of control | dose: 200.0 mg/kg/injection, schedule: Q04DX003 (ip), vehicle: Klucel (hydroxypropylcellulose) (HPC) 91 % of control | [11] 97 % of control | dose: 400.0 mg/kg/injection, schedule: Q04DX003 (ip), vehicle: Klucel (hydroxypropylcellulose) (HPC) 92 % of control

Clc1ccc(Cl)c(N=Cc2ccc3c(c2)OCO3)c1
inactive: [1] 92 % of control | [2] 95 % of control | [3] 92 % of control

CCOC(=O)C1=NC=NC1=[N+]=[N-]
inactive: dose: 5.0 mg/kg/injection, schedule: Q01DX001 (ip), vehicle: saline 92 % of control | dose: 10.0 mg/kg/injection, schedule: Q01DX001 (ip), vehicle: saline 94 % of control | dose: 20.0 mg/kg/injection, schedule: Q01DX001 (ip), vehicle: saline 100 % of control

COc1cc(C(C)S(=O)(=O)c2ccccc2)ccc1O (stereo not drawn)
inactive: [8] 97 % of control | [9] 97 % of control | [10] 103 % of control

CC1(C)CCC2(C(=O)OC3OC(CO)C(O)C(O)C3O)CCC3(CO)C(=CCC4C5(C)CC(O)C(O)C(C)(C(=O)OC6OC(CO)C(O)C(O)C6O)C5CCC43C)C2C1 (stereo not drawn)
inactive: dose: 75.0 mg/kg/injection, schedule: Q01DX001 (sc), vehicle: steriod suspending solution 101 % of control | dose: 300.0 mg/kg/injection, schedule: Q01DX001 (sc), vehicle: steriod suspending solution 107 % of control
